Experimental data as given in patent US20060134022A1, “Salivary stimulatory compositions and method of use thereof” (priority 2004, published 2006).

Assay: Self warming mouthwash temperature increase vs. sulfite concentration on mixing sulfite phase with peroxide phase
Format: physicochemical
Settings: approximate (plus/minus 2 degrees)
Excerpt: The saliva stimulation effectiveness of the solution depends on raising its temperature before use. This may be done by conventional external heating means. Alternatively the sulfate, bisulfate or pyrosulfate may be produced in situ by utilizing a solution of the corresponding sulfite, bisulfite or metabisulfite and adding a solution of an orally acceptable peroxide thereto. The resulting reaction produces excess heat, thus raising the solution temperature. While the amount of peroxide added is not critical, it is desirable to use at least an amount substantially equivalent to the stoichiometric amount need to oxidize the salts in their reduced forms to the higher oxidation state.
Note: Temperatures are in Fahrenheit Degrees and are approximate (plus/minus 2 degrees).
Sulfite Concentrations listed below are final concentration in the mouthwash. Since the final mouthwash is formed from equal amounts of 2 separate phases, the sulfite concentration in the sulfite containing phase is double that in the final mouthwash.
Combine equal amounts of Phase A and Phase B, Just prior to use, to form the final mouth rinse

[1] = 1% final concentration in the mouthwash
[2] = 2% final concentration in the mouthwash
[3] = 4% final concentration in the mouthwash

| SMILES | Final Temp. [1] [Fahrenheit Degrees] | Temp. Increase [1] [Fahrenheit Degrees] | Final Temp. [2] [Fahrenheit Degrees] | Temp. Increase [2] [Fahrenheit Degrees] | Final Temp. [3] [Fahrenheit Degrees] | Temp. Increase [3] [Fahrenheit Degrees] |
| --- | --- | --- | --- | --- | --- | --- |
| O=S([O-])S(=O)(=O)[O-].[Na+].[Na+] [Sodium Metabisulfite] | 97.3 | 12.1 | 113.2 | 27.2 | 142.0 | 55.9 |
| O=S([O-])[O-].[Na+].[Na+] [Sodium Sulfite] | 98.1 | 10.2 | 110.7 | 21.4 | 133.5 | 43.0 |
